Experimental data: article PMC4967831, “Structural dissection of a complex Bacteroides ovatus gene locus conferring xyloglucan metabolism in the human gut” (Open Biology, 2016)
Blank lines part the entries; values can stand above or below the compound they belong to.

Experiments:
Type in all cases: binding
BoGH43A [1] = target: T1, BoGH43A (Bacteroides ovatus, UniProt A7LXT8); test: ITC and crystal structure of the complex
T1 construct: gene BACOVA_02654; pET28a construct with N-terminal His6-tag
T1 sequence (A7LXT8 21-526): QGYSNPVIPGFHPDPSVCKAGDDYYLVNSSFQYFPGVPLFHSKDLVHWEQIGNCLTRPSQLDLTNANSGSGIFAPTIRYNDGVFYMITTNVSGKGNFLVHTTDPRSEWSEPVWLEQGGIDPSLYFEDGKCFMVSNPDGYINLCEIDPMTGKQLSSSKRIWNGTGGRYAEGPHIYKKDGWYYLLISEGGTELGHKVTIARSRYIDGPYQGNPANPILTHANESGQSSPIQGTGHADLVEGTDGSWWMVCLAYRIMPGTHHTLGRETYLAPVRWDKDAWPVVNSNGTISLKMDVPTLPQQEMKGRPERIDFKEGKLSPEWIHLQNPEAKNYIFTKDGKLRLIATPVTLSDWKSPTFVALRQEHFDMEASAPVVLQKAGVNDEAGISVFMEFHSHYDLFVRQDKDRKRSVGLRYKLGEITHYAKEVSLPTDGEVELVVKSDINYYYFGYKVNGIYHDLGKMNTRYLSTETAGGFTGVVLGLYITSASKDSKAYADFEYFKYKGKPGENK

BoGH43B = target: T2, BoGH43B (Bacteroides ovatus, UniProt A7LXU0); test: ITC
T2 construct: gene BACOVA_02656; expressed from pET21a(BoGH43B)
T2 sequence (A7LXU0 24-529): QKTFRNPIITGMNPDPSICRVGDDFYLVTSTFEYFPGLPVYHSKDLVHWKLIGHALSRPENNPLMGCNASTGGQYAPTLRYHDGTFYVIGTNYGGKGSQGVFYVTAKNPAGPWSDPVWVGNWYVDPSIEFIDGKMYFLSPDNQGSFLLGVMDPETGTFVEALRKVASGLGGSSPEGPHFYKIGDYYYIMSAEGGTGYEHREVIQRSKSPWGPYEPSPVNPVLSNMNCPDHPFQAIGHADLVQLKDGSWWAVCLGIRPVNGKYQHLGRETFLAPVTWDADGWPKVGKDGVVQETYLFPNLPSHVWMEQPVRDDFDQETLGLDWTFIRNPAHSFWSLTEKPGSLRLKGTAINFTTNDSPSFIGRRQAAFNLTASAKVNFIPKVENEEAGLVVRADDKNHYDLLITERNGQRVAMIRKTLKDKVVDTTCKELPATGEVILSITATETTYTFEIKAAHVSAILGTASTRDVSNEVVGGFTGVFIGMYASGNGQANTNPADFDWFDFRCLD

BoGH31 = target: T3, BoGH31 (Bacteroides ovatus, UniProt A7LXT0); test: crystal structure of covalent glycosyl-enzyme intermediate (soak)
T3 construct: gene BACOVA_02646; pET-YSBL3C construct with N-terminal His6-tag and 3C-cleavage site
T3 sequence (A7LXT0 22-954): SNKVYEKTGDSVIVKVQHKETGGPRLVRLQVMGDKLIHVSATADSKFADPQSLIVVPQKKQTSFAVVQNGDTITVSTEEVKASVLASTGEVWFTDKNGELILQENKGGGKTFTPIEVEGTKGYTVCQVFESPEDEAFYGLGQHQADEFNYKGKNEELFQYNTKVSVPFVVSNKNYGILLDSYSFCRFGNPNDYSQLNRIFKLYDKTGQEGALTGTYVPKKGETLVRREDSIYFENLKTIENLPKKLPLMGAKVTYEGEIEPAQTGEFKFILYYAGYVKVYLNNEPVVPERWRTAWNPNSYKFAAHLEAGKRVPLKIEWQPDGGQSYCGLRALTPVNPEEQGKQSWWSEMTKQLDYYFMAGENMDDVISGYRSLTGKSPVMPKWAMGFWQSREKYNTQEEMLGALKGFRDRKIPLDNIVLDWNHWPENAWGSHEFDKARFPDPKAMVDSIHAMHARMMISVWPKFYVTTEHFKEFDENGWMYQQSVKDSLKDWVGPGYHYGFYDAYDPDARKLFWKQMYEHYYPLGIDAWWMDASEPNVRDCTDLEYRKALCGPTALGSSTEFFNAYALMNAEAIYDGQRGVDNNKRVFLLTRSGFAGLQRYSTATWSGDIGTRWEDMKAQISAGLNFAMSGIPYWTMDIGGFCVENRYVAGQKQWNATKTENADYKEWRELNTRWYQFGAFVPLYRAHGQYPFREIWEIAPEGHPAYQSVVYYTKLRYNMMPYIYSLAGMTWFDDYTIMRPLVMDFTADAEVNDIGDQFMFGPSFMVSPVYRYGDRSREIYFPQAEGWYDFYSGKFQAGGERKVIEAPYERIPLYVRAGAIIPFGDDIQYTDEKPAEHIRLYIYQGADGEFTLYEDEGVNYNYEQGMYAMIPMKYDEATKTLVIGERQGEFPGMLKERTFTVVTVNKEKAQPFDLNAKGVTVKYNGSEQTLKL

BoGH43A [2] = target: T1, BoGH43A; test: crystal structure of the complex (soak); too weak to be measured by ITC
BoGH3B = target: T4, BoGH3B (Bacteroides ovatus, UniProt A7LXU3); test: crystal structure; glucose co-purified in the active site
T4 construct: gene BACOVA_02659; expressed from pET21a(GH3B)
T4 sequence (A7LXU3 23-786): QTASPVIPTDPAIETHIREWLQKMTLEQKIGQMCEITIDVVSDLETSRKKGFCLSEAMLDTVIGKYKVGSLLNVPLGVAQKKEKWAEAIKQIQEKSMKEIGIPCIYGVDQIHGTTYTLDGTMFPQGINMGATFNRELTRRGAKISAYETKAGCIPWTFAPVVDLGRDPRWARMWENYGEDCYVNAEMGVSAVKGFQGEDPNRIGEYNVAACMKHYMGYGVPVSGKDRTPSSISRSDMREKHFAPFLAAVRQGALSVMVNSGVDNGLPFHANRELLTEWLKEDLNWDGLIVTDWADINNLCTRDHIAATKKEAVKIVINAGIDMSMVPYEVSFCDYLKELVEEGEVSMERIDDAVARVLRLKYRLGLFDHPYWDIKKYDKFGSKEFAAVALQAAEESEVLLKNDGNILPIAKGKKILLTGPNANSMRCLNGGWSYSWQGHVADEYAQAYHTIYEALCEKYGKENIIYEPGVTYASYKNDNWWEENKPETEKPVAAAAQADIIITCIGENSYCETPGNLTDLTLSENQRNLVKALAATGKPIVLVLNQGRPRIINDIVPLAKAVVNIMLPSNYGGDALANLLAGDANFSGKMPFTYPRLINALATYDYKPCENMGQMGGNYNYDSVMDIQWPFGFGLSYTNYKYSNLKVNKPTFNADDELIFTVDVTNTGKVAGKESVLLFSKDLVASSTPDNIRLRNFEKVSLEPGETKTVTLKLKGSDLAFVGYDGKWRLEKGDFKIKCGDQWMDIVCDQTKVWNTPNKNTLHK

Kd (BoGH43A [1]): 35 ± 4 µM
Kd (BoGH43B): 111 ± 6 µM
SMILES: OC[C@@H]1NC[C@H](O)[C@H]1O [AraDNJ]

SMILES: OC[C@]1(F)O[C@H](F)[C@H](O)[C@@H](O)[C@@H]1O [5FIdoF, 5-fluoro-β-L-idosyl fluoride]
crystal structure of covalent glycosyl-enzyme intermediate (soak) (BoGH31): 5FIdoF forms an α-glycosidic linkage to the side-chain carboxylate of Asp553

SMILES: OC[C@@H]1O/C(=N\O)[C@H](O)[C@H]1O [AraLOG, (Z)-L-Arabinonhydroximo-1,4-lactone]
crystal structure of the complex (soak); too weak to be measured by ITC (BoGH43A [2]): the inhibitor stacking against Tyr187 while also H-bonding directly to the side chains of Glu210 and Glu189

SMILES: OC[C@H]1O[C@@H](O)[C@H](O)[C@@H](O)[C@@H]1O [glucose]
crystal structure; glucose co-purified in the active site (BoGH3B): BoGH3B was found to co-purify with glucose in its active site (figure 5b)
